In US20240409585A1, “MACROCYCLIC IMMUNOMODULATORS” (priority 2021, published 2024):
Numbered stars: 1 amine (or outer) side, 2 acyl side, 3 side chain; on linkers, the order of the positions; unused ones are H or OH. Bridge positions count the residues as written; N and C are the ends. Square brackets hold non-standard residues; d marks the D form. Peptide text beside a SMILES is read from it. * marks the point of attachment. X26 = O=C([C@H](Cc1ccc(-c2cccc(S(=O)(=O)N3CCOCC3)c2)cc1)N[*:1])[*:2]; Bip(4'-COOH) = N[C@@H](Cc1ccc(-c2ccc(C(=O)O)cc2)cc1)C(=O)O; Bip(4'-NHAc) = CC(=O)Nc1ccc(-c2ccc(C[C@H](N)C(=O)O)cc2)cc1; Phe(3-CF3) = N[C@@H](Cc1cccc(C(F)(F)F)c1)C(=O)O; Ala(morpholin-4-yl) = N[C@@H](CN1CCOCC1)C(=O)O; Phe(4-CONH2) = NC(=O)c1ccc(C[C@H](N)C(=O)O)cc1; Phe(4-COOH) = N[C@@H](Cc1ccc(C(=O)O)cc1)C(=O)O; X5 = CS(=O)(=O)NC(=O)C[C@H](N[*:1])C(=O)[*:2]; Bip = N[C@@H](Cc1ccc(-c2ccccc2)cc1)C(=O)O; Phe(3-Me) = Cc1cccc(C[C@H](N)C(=O)O)c1; Abu(3S-NH2) = C[C@H](N)[C@H](N)C(=O)O; hPhe = N[C@@H](CCc1ccccc1)C(=O)O; Cha = N[C@@H](CC1CCCCC1)C(=O)O; hSer = N[C@@H](CCO)C(=O)O; Carboxymethyl = O=C(O)C*; NMeA = CN[C@@H](C)C(=O)O; Orn = NCCC[C@H](N)C(=O)O; Dab = NCC[C@H](N)C(=O)O; Dap = NC[C@H](N)C(=O)O; X9 = O=C(CCF)*

These molecules were tested against T1, Alexa fluor-647 labeled human PD-L1-Ig binding to Jurkat cell line over-expressing human PD-1 (Homo sapiens, UniProt Q15116) (assay: Jurkat-PD-1 Cell Binding High-Content Screening Assay (CBA): Method 3 (Alexa fluor-647 labeled PD-L1-Ig)). Details: Jurkat-PD-1 cells, Alexa fluor-647 labeled PD-L1-Ig 177 nM; head μM; read-out: CBA Method 3 μM.
T1 construct: expressed in transfected cells; host or cells: Jurkat
Outline: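 Jurkat cells over-expressing human PD-1 in RPMI/10% FCS were preincubated 2 h at 37 °C with compound, then exposed 1 h to Alexa fluor-647 labeled human PD-L1-Ig (177 nM final). Cells fixed in 4% paraformaldehyde with Hoechst 33342 and binding quantified by high-content imaging.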

T1 sequence (Q15116 25-288): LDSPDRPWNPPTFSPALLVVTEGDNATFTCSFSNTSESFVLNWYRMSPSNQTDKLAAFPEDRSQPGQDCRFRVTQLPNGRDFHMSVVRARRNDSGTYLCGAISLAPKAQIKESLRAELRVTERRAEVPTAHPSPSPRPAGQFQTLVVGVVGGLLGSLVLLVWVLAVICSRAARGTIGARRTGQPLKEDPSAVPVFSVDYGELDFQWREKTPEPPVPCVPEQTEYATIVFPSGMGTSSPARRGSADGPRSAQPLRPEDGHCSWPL

IC50 [µM]	SMILES
0.33	Cc1cccc(C[C@@H]2NC(=O)[C@H](CC(=O)O)NC(=O)[C@H](Cc3ccc(OCC(=O)O)cc3)NC(=O)[C@H](CN3CCOCC3)NC(=O)CSC[C@@H](C(=O)N[C@@H](CCN)C(N)=O)NC(=O)[C@H](CCCN)NC(=O)[C@H](C(C)C)NC(=O)[C@H](CC3CCCCC3)NC(=O)[C@H](CCN)NC(=O)[C@@H](CC(C)C)NC(=O)[C@H](C)N(C)C(=O)[C@H](CCC(N)=O)NC(=O)[C@H](Cc3ccc(-c4ccccc4)cc3)NC(=O)[C@H](Cc3ccc(-c4cccc(S(=O)(=O)N5CCOCC5)c4)cc3)NC2=O)c1 [Example 5107] ({CH2CO}-[Ala(morpholin-4-yl)]Y(Carboxymethyl)D[Phe(3-Me)][X26][Bip]Q[NMeA][dL][Dab][Cha]V[Orn]C[Dab]-NH2; thioether N-14)
0.02	Cc1cccc(C[C@@H]2NC(=O)[C@H](CC(=O)O)NC(=O)[C@H](Cc3ccc(OCC(=O)O)cc3)NC(=O)[C@H](CC3CCCCC3)NC(=O)CSC[C@@H](C(=O)N[C@@H](CCN)C(N)=O)NC(=O)[C@H](CCCN)NC(=O)[C@H](C(C)C)NC(=O)[C@H](CC3CCCCC3)NC(=O)[C@H](CCN)NC(=O)[C@@H](CC(C)C)NC(=O)[C@H](C)N(C)C(=O)[C@H](CCC(N)=O)NC(=O)[C@H](Cc3ccc(-c4ccccc4)cc3)NC(=O)[C@H](CCc3ccccc3)NC2=O)c1 [Example 5218] ({CH2CO}-[Cha]Y(Carboxymethyl)D[Phe(3-Me)][hPhe][Bip]Q[NMeA][dL][Dab][Cha]V[Orn]C[Dab]-NH2; thioether N-14)
0.02	CC(=O)Nc1ccc(-c2ccc(C[C@@H]3NC(=O)[C@H](Cc4cccc(C(F)(F)F)c4)NC(=O)[C@H](CC(=O)O)NC(=O)[C@H](Cc4ccc(C(=O)O)cc4)NC(=O)[C@H](CCN)NC(=O)CSC[C@@H](C(=O)N[C@@H](CCN)C(N)=O)NC(=O)[C@H](CCC(N)=O)NC(=O)[C@H](C(C)C)NC(=O)[C@H](CC4CCCCC4)NC(=O)[C@H](CCN)NC(=O)[C@@H](CC(C)C)NC(=O)[C@H](C)N(C)C(=O)[C@H](Cc4ccc(C(N)=O)cc4)NC(=O)[C@H](Cc4ccc(-c5ccccc5)cc4)NC3=O)cc2)cc1 [Example 5097] ({CH2CO}-[Dab][Phe(4-COOH)]D[Phe(3-CF3)][Bip(4'-NHAc)][Bip][Phe(4-CONH2)][NMeA][dL][Dab][Cha]VQC[Dab]-NH2; thioether N-14)
0.03	CC(C)C[C@H]1NC(=O)[C@H](C)N(C)C(=O)[C@H](Cc2ccc(C(=O)O)cc2)NC(=O)[C@H](Cc2ccc(-c3ccccc3)cc2)NC(=O)[C@H](Cc2ccc(C(=O)O)cc2)NC(=O)[C@H](Cc2cccc(C(F)(F)F)c2)NC(=O)[C@H](CC(=O)O)NC(=O)[C@H](Cc2ccc(C(=O)O)cc2)NC(=O)[C@H](CN2CCOCC2)NC(=O)CSC[C@@H](C(=O)N[C@@H](CCN)C(N)=O)NC(=O)[C@H](CNC(=O)CCF)NC(=O)[C@H](C(C)C)NC(=O)[C@H](CC2CCCCC2)NC(=O)[C@H](CCN)NC1=O [Example 5230] ({CH2CO}-[Ala(morpholin-4-yl)][Phe(4-COOH)]D[Phe(3-CF3)][Phe(4-COOH)][Bip][Phe(4-COOH)][NMeA][dL][Dab][Cha]V[Dap](X9)C[Dab]-NH2; thioether N-14)
0.01	CC(C)C[C@@H]1NC(=O)[C@H](Cc2c[nH]c3ccccc23)NC(=O)[C@H](CC(=O)O)NC(=O)[C@H](Cc2ccc(C(=O)O)cc2)NC(=O)[C@H](Cc2ccc(OCC(=O)O)cc2)NC(=O)CSC[C@@H](C(=O)N[C@@H](CCCN)C(N)=O)NC(=O)[C@H](C(C)C)NC(=O)[C@H]([C@@H](C)O)NC(=O)[C@H](CC2CCCCC2)NC(=O)[C@H](CCN)NC(=O)[C@@H](CC(C)C)NC(=O)[C@H](C)N(C)C(=O)[C@H](C(C)C)NC(=O)[C@H](Cc2ccc(-c3ccccc3)cc2)NC1=O [Example 5140] ({CH2CO}-Y(Carboxymethyl)[Phe(4-COOH)]DWL[Bip]V[NMeA][dL][Dab][Cha]TVC[Orn]-NH2; thioether N-14)
0.03	CC(C)C[C@H]1NC(=O)[C@H](C)N(C)C(=O)[C@H](CCC(N)=O)NC(=O)[C@H](Cc2ccc(-c3ccccc3)cc2)NC(=O)[C@H](Cc2ccc(-c3ccc(C(=O)O)cc3)cc2)NC(=O)[C@H](Cc2cccc(C(F)(F)F)c2)NC(=O)[C@H](CC(=O)O)NC(=O)[C@H](Cc2ccc(C(=O)O)cc2)NC(=O)[C@H](CC2CCCCC2)NC(=O)CSC[C@@H](C(=O)N[C@@H](CCN)C(N)=O)NC(=O)[C@H](CCCN)NC(=O)[C@H](C(C)C)NC(=O)[C@H](CC2CCCCC2)NC(=O)[C@H](CCN)NC1=O [Example 5165] ({CH2CO}-[Cha][Phe(4-COOH)]D[Phe(3-CF3)][Bip(4'-COOH)][Bip]Q[NMeA][dL][Dab][Cha]V[Orn]C[Dab]-NH2; thioether N-14)
0.65	CC(=O)Nc1ccc(-c2ccc(C[C@@H]3NC(=O)[C@H](Cc4cccc(C(F)(F)F)c4)NC(=O)[C@H](CC(=O)NS(C)(=O)=O)NC(=O)[C@H](Cc4ccc(C(=O)O)cc4)NC(=O)[C@H]([C@H](C)N)NC(=O)CSC[C@@H](C(=O)N[C@@H](CCN)C(N)=O)NC(=O)[C@H](CCC(N)=O)NC(=O)[C@H](C(C)C)NC(=O)[C@H](CC4CCCCC4)NC(=O)[C@H](CCN)NC(=O)[C@@H](CC(C)C)NC(=O)[C@H](C)N(C)C(=O)[C@H](Cc4ccc(C(N)=O)cc4)NC(=O)[C@H](Cc4ccc(-c5ccccc5)cc4)NC3=O)cc2)cc1 [Example 5099] ({CH2CO}-[Abu(3S-NH2)][Phe(4-COOH)][X5][Phe(3-CF3)][Bip(4'-NHAc)][Bip][Phe(4-CONH2)][NMeA][dL][Dab][Cha]VQC[Dab]-NH2; thioether N-14)
0.06	Cc1cccc(C[C@@H]2NC(=O)[C@H](CC(=O)O)NC(=O)[C@H](Cc3ccc(O)cc3)NC(=O)[C@H](CN3CCOCC3)NC(=O)CSC[C@@H](C(=O)N[C@@H](CCN)C(N)=O)NC(=O)[C@H](CCC(=O)O)NC(=O)[C@H](CCO)NC(=O)[C@H](CC3CCCCC3)NC(=O)[C@H](CCN)NC(=O)[C@@H](CC(C)C)NC(=O)[C@H](C)N(C)C(=O)[C@H](CCC(N)=O)NC(=O)[C@H](Cc3ccc(-c4ccccc4)cc3)NC(=O)[C@H](Cc3ccc(OCC(=O)O)cc3)NC2=O)c1 [Example 5261] ({CH2CO}-[Ala(morpholin-4-yl)]YD[Phe(3-Me)]Y(Carboxymethyl)[Bip]Q[NMeA][dL][Dab][Cha][hSer]EC[Dab]-NH2; thioether N-14)
0.1	CC(C)C[C@H]1NC(=O)[C@H](C)N(C)C(=O)[C@H](CCC(N)=O)NC(=O)[C@H](Cc2ccc(-c3ccccc3)cc2)NC(=O)[C@H](Cc2ccc(OCC(=O)O)cc2)NC(=O)[C@H](Cc2cccc(C(F)(F)F)c2)NC(=O)[C@H](CC(=O)O)NC(=O)[C@H](CCc2ccccc2)NC(=O)[C@H](CN2CCOCC2)NC(=O)CSC[C@@H](C(=O)N[C@@H](CCN)C(N)=O)NC(=O)[C@H](CCCN)NC(=O)[C@H](C(C)C)NC(=O)[C@H](CC2CCCCC2)NC(=O)[C@H](CCN)NC1=O [Example 5264] ({CH2CO}-[Ala(morpholin-4-yl)][hPhe]D[Phe(3-CF3)]Y(Carboxymethyl)[Bip]Q[NMeA][dL][Dab][Cha]V[Orn]C[Dab]-NH2; thioether N-14)

Same assay, conditions: Jurkat-PD-1 cells, Alexa fluor-647 labeled PD-L1-Ig 177 nM; nM; read-out: CBA Method 3

IC50 [µM]	SMILES
0.0097	CC(C)C[C@H]1NC(=O)[C@H](C)N(C)C(=O)[C@H](Cc2ccc(OCC(=O)O)cc2)NC(=O)[C@H](Cc2ccc(-c3ccccc3)cc2)NC(=O)[C@H](Cc2ccc(OCC(=O)O)cc2)NC(=O)[C@H](Cc2c[nH]c3ccccc23)NC(=O)[C@H](CC(=O)O)NC(=O)[C@H](Cc2ccc(-c3ccc(C(=O)O)cc3)cc2)NC(=O)[C@H](CN2CCOCC2)NC(=O)CSC[C@@H](C(=O)N[C@@H](CCN)C(N)=O)NC(=O)[C@H](CCC(=O)O)NC(=O)[C@H](C(C)C)NC(=O)[C@H](CC2CCCCC2)NC(=O)[C@H](CCN)NC1=O [Example 5117] ({CH2CO}-[Ala(morpholin-4-yl)][Bip(4'-COOH)]DWY(Carboxymethyl)[Bip]Y(Carboxymethyl)[NMeA][dL][Dab][Cha]VEC[Dab]-NH2; thioether N-14)
0.0028	CC(=O)Nc1ccc(-c2ccc(C[C@@H]3NC(=O)[C@H](Cc4cccc(C)c4)NC(=O)[C@H](CC(=O)O)NC(=O)[C@H](Cc4ccc(-c5ccc(C(=O)O)cc5)cc4)NC(=O)[C@H](CN4CCOCC4)NC(=O)CSC[C@@H](C(=O)N[C@@H](CCN)C(N)=O)NC(=O)[C@H](CCC(=O)O)NC(=O)[C@H](C(C)C)NC(=O)[C@H](CC4CCCCC4)NC(=O)[C@H](Cc4cnc[nH]4)NC(=O)[C@@H](CC(C)C)NC(=O)[C@H](C)N(C)C(=O)[C@H](Cc4ccc(C(=O)O)cc4)NC(=O)[C@H](Cc4ccc(-c5ccccc5)cc4)NC3=O)cc2)cc1 [Example 5253] ({CH2CO}-[Ala(morpholin-4-yl)][Bip(4'-COOH)]D[Phe(3-Me)][Bip(4'-NHAc)][Bip][Phe(4-COOH)][NMeA][dL]H[Cha]VEC[Dab]-NH2; thioether N-14)
0.0025	CC(=O)Nc1ccc(-c2ccc(C[C@@H]3NC(=O)[C@H](Cc4cccc(C(F)(F)F)c4)NC(=O)[C@H](CC(=O)O)NC(=O)[C@H](Cc4ccc(C(=O)O)cc4)NC(=O)[C@H](Cc4ccc(OCC(=O)O)cc4)NC(=O)CSC[C@@H](C(=O)N[C@@H](CCN)C(N)=O)NC(=O)[C@H](CCC(=O)O)NC(=O)[C@H](C(C)C)NC(=O)[C@H](CC4CCCCC4)NC(=O)[C@H](CCN)NC(=O)[C@@H](CC(C)C)NC(=O)[C@H](C)N(C)C(=O)[C@H](Cc4ccc(OCC(=O)O)cc4)NC(=O)[C@H](Cc4ccc(-c5ccccc5)cc4)NC3=O)cc2)cc1 [Example 5163] ({CH2CO}-Y(Carboxymethyl)[Phe(4-COOH)]D[Phe(3-CF3)][Bip(4'-NHAc)][Bip]Y(Carboxymethyl)[NMeA][dL][Dab][Cha]VEC[Dab]-NH2; thioether N-14)
